Patent publication US20200108066A1, “METHODS FOR MODULATING REGULATORY T CELLS AND IMMUNE RESPONSES USING CDK4/6 INHIBITORS” (Dana-Farber Cancer Institute, Inc., priority 2017, published 2020)

Tests used:
[1] = test system: MMTV-rtTA/tetO-HER2 tumors; assay: Tumor growth in MMTV-rtTA/tetO-HER2 transgenic mice; format: in vivo, mouse; conditions: bulky tumors growing prior to treatment; three independent experiments
From the text: Tumor formation was induced in MMTV-rtTA/tetO-HER2 mice with doxycycline as previously described in Goel et al. (2016) Cancer Cell 29:255-269. Female FVB mice (7 weeks of age) were purchased from Taconic Biosciences (Hudson, N.Y.). Female J:NU nude mice (8 weeks of age) were purchased from Jackson Labs (Bar Harbor, Me.). FVB CD45.2+ mice used as a source of T cells for in vitro studies were a kind gift from Dr. Daniel Tenen. For tumor growth studies in J:NU mice, MMTV-rtTA/tetO-HER2 tumor explants were orthotopically implanted bilaterally into nude mice, as previously described in Goel et al. (2016), supra. […] For tumor experiments in transgenic MMTV-rtTA/tetO-HER2 mice, tumors measured between 5 mm and 15 mm when treatment was begun. Mice were assigned into treatment groups so that the distribution of tumor volumes was even between groups. Tumor volume was calculated as previously described in Goel et al. (2016), supra and tumors were measured by caliper 2-3 times per week. For tumor growth curve analysis, one-way ANOVA tests were performed with correction for multiple comparisons using Sidak's multiple comparisons test. […]

[2] = test system: MMTV-rtTA/tetO-HER2 tumors; assay: Gene expression (transcriptome, qPCR) in MMTV-rtTA/tetO-HER2 tumor tissue; format: in vivo, mouse
MDA-MB-453 cells = assay: Expression analysis (transcriptome, qPCR, Western blot, ELISA) in MDA-MB-453 cells treated in vitro; format: cell-based, human; conditions: SASP gene, abemaciclib 500 nM, 7 days, relative to DMSO
[3] = Plasma autoantibody ELISAs (anti-ANA, anti-dsDNA); format: in vivo, mouse; conditions: tumor-free and tumor-bearing mice, 12 days
Protocol: For the last 24 hours, the culture media was replaced with serum free media. Following concentration of conditioned media using Amicon® Ultra centrifugal filters (Millipore, Billerica, Mass.), cytokines were analyzed according to the manufacturer's recommendations using the following kits: human IFN gamma ELISA Ready-SET-Go!® (Affymetrix eBioscience), human TNF alpha ELISA Ready-SET-Go!® (Affymetrix eBioscience), Verikine human IFN alpha ELISA kit (PBL assay science, Piscataway, N.J.), VeriKine-HS human IFN beta serum ELISA kit (PBL assay science), human IL-28B quantikine ELISA kit (R&D Systems, Minneapolis, Minn.), human […] Systems), and human IL-29 DuoSet ELISA (R&D Systems). Anti-ANA and anti-dsDNA ELISAs (Alpha Diagnostic, San Antonio, Tex.) were performed according to the manufacturer's instructions on plasma isolated from tumor free or tumor-bearing mice. Absorbance was measured on a SynergyTM Neo plate reader (BioTek, Winooski, Vt.) using Gen5TM software.

thymocytes = assay: Thymic mass and thymic cell populations in tumor-free FVB mice; format: in vivo, mouse; conditions: 12 days
Protocol: FIG. 10 includes 9 panels, identified as panels A, B, C, D, E, F, G, H, and I, which show the impact of CDK4/6 inhibition on immune cell populations and Treg biology. […] Panel C compares thymic mass with or without abemaciclib/palbociclib treatment. Thymic cell populations were quantified by flow cytometry.
Following mechanical digestion and RBC lysis, single cell suspensions were blocked with anti-CD16/32 for 20 minutes on ice. Cells were incubated with appropriate antibodies for 30 minutes on ice.
Murine antibodies used for flow cytometry include those recognizing CD45 (clone 30-F11), CD3 (clone 145-2C11), CD8 (clone 53-6.7), CD4 (clone RM4-5), PD-1 (clone 29F.1A12), Tim-3 (clone RMT3-23), CTLA-4 (clone UC10-4B9), LAG-3 (clone C9B7W), B220 (clone RA3-6B2), NK1.1 (clone PK136), CD11b (clone M1/70), Ly6G (clone 1A8), Ly6C (clone AL-21), FoxP3 (clone FJK-16s), and Ki-67 (clone 16A8). Human antibodies used for flow cytometry were those recognizing β2-microglobulin (clone 2M2) and HLA-A, B, C (clone W6/32). Antibodies were purchased from Biolegend with the exception of anti-FoxP3 from eBioscience and anti-Ly6C from BD Pharmigen. All antibodies used for flow cytometry were directly conjugated to fluorophores. […] Flow cytometry was performed on a LSRII (BD Biosciences, San Jose, Calif.) or FACSCANTOII (BD Biosciences), and data was analyzed using FlowJo® (TreeStar).

[4] = test system: tumor-infiltrating CD8+ and CD4+ T cells; assay: Inhibitory co-receptor expression on intratumoral T cells (flow cytometry); format: in vivo, mouse
Protocol: Tumors were first mechanically disrupted by chopping, then chemically digested in dissociation buffer (2 mg/mL collagenase type IV (Worthington Biochemical, Lakewood, N.J.), 0.02 mg/mL DNase (Sigma Aldrich) in DMEM (Life Technologies) containing 5% FBS (Life Technologies), PenStrep (Hyclone)) with agitation at 37° C. for 45 minutes. After RBC lysis, single cell suspensions were blocked with anti-CD16/32 for 20 minutes on ice. Then, cells were incubated with the appropriate antibodies for 30 minutes on ice.
Murine antibodies used for flow cytometry include those recognizing CD45 (clone 30-F11), CD3 (clone 145-2C11), CD8 (clone 53-6.7), CD4 (clone RM4-5), PD-1 (clone 29F.1A12), Tim-3 (clone RMT3-23), CTLA-4 (clone UC10-4B9), LAG-3 (clone C9B7W), B220 (clone RA3-6B2), NK1.1 (clone PK136), CD11b (clone M1/70), Ly6G (clone 1A8), Ly6C (clone AL-21), FoxP3 (clone FJK-16s), and Ki-67 (clone 16A8). Human antibodies used for flow cytometry were those recognizing β2-microglobulin (clone 2M2) and HLA-A, B, C (clone W6/32). Antibodies were purchased from Biolegend with the exception of anti-FoxP3 from eBioscience and anti-Ly6C from BD Pharmigen. All antibodies used for flow cytometry were directly conjugated to fluorophores. The anti-mouse/rat FoxP3 staining set (eBioscience) was used for intracellular staining according to the manufacturer's instructions. 7AAD was used to distinguish live/dead cells, except for analyses requiring intracellular staining when eFluor® 450 fixable viability dye (eBioscience) or Zombie Yellow™ fixable viability dye (Biolegend) were used. To determine the absolute number of cells in a sample, CountBright™ absolute counting beads (Molecular Probes, ThermoFisher) were added. Flow cytometry was performed on a LSRII (BD Biosciences, San Jose, Calif.) or FACSCANTOII (BD Biosciences), and data was analyzed using FlowJo® (TreeStar).
Furthermore, the mRNA level of Ifng (the main effector cytokine of cytotoxic T cells) was more than 4-fold higher in treated bulk tumor tissue (FIG. 13D).

[5] = test system: MMTV-rtTA/tetO-HER2 tumors; assay: Combined abemaciclib and anti-PD-L1 therapy in MMTV-rtTA/tetO-HER2 tumor bearing mice; format: in vivo, mouse
Protocol: After 3 days, the dose was dropped to 75 mg/kg daily and treatment with an anti-PD-L1 antibody (200 μg by intraperitoneal injection every 72 hours; BioXcell, clone 10F.9G2) or an isotype control antibody (200 μg by intraperitoneal injection every 72 hours) was commenced. Mice were euthanized using CO2 inhalation, and all mouse experiments were performed in accordance with protocols approved by the Institutional Animal Care and Use Committees of Dana-Farber Cancer Institute, Harvard Medical School, and Boston Children's Hospital.

[6] = test system: MDA-MB-453 and BT474 cells; assay: Doxorubicin-induced senescence; format: cell-based, human; conditions: doxorubicin 200 nM 24 h, RNA 72 hours later
Protocol: MDA-MB-453 and BT474 cells were treated with doxorubicin (Sigma Aldrich, 200 nM) for a period of 24 hrs. The cells were then cultured in fresh media for 72 hours after treatment, and RNA was extracted for qPCR.

Compound | average reduction in tumor volume at the 12-day end point [1] | Fold change (abema vs DMSO treatment): COL1A1 ([2]; SASP gene, MMTV-rtTA/tetO-HER2 tumors, abemaciclib 12 days, relative to vehicle) | mRNA level of Ifng in bulk tumor tissue, treated vs vehicle ([2]; qPCR) | Fold change (abema vs DMSO treatment): COL1A1 (MDA-MB-453 cells) | autoimmune phenotype: anti-nuclear antibody (ANA) or anti-dsDNA antibody levels [3] | total thymic mass (thymocytes) | fractions of PD-1high and PD-1+/TIM-3+ cytotoxic T cells ([4]; 6 days treatment vs vehicle) | number of inhibitory receptors detected on any given cytotoxic T cell ([4]; 6 days treatment vs vehicle) | reduction of PD-1+/TIM-3+ cytotoxic T cell fraction ([4]; 6 days treatment vs vehicle) | CD8+ cells expressing none of the inhibitory receptors ([4]; abemaciclib treated tumors, 6 days) | average reduction in tumor volume at day 13 of treatment [5] | beta galactosidase and interleukin-6 expression [6]
CCN1CCN(Cc2ccc(Nc3ncc(F)c(-c4cc(F)c5nc(C)n(C(C)C)c5c4)n3)nc2)CC1 [abemaciclib] | 40% | 1.207 fold | more than 4 fold | 0.752 fold | No associated increases | significantly reduced | significantly reduced | lower | 50% | over 50% | 35% | –
COc1cccc2c1C(=O)c1c(O)c3c(c(O)c1C2=O)C[C@@](O)(C(=O)CO)C[C@@H]3O[C@H]1C[C@H](N)[C@H](O)[C@H](C)O1 [doxorubicin] | – | – | – | – | – | – | – | – | – | – | – | increased
CC(=O)c1c(C)c2cnc(Nc3ccc(N4CCNCC4)cn3)nc2n(C2CCCC2)c1=O [palbociclib] | – | – | – | – | – | significantly reduced | – | – | – | – | – | –
